Assay [1] has as its system IPOHE. As to the kind of experiment: Example V (second) postemergence foliar-applied ternary mixtures, greenhouse, direct seeded rice weeds. It is filed as in vivo, Ipomoea hederacea Jacq. The settings on record: 6 gae/ha. As for the experimental part:
(§1) The treated plants and control plants were placed in a greenhouse as described above and watered by sub-irrigation to prevent wash-off of the test compounds. After approximately 3 weeks, the condition of the test plants as compared with that of the untreated plants was determined visually and scored on a scale of 0 to 100 percent where 0 corresponds to no injury or growth inhibition and 100 corresponds to complete kill.
(§2) Colby's equation was used to determine the herbicidal effects expected from the mixtures (Colby, S. R. 1967. Calculation of the synergistic and antagonistic response of herbicide combinations. Weeds 15:20-22.).
(§3) The following equation was used to calculate the expected activity of mixtures containing three active ingredients, A, B, and C: Expected=A+B+C−((A×B+A×C+B×C)/100)+(A×B×C/10000)

For the next assay, the system named is CYPES. The description is as above. The format is in vivo, Cyperus esculentus L. As for the experimental part:
as §1, §2, §3

In assay [2] the test system is IPOHE. In words: Example I postemergence foliar-applied, greenhouse, direct seeded rice weeds. It is filed as in vivo, Ipomoea hederacea Jacq. From the text:
(§4) Seeds or nutlets of the desired test plant species were planted in a soil matrix prepared by mixing a loam or sandy loam soil (e.g., 28.6 percent silt, 18.8 percent clay, and 52.6 percent sand, with a pH of about 5.8 and an organic matter content of about 1.8 percent) and calcareous grit in an 80 to 20 ratio. The soil matrix was contained in plastic pots with a volume of 1 quart and a surface area of 83.6 square centimeters (cm^2). When required to ensure good germination and healthy plants, a fungicide treatment and/or other chemical or physical treatment was applied. The plants were grown for 8-22 days in a greenhouse with an approximate 14 hr. photoperiod which was maintained at about 29° C. during the day and 26° C. during the night. Nutrients (Peters Excel® 15-5-15 5-Ca 2-Mg and iron chelate) were applied in the irrigation solution as needed and water was added on a regular basis. Supplemental lighting was provided with overhead metal halide 1000-Watt lamps as necessary. The plants were employed for testing when they reached the first through fourth true leaf stage.
(§5) Treatments consisted of the acid or esters of 4-amino-3-chloro-5-fluoro-6-(4-chloro-2-fluoro-3-methoxy-phenyl)pyridine-2-carboxylic acid (Compound A), each formulated as an SC (suspension concentrate), and various herbicidal components alone and in combination.
(§6) Other herbicidal components were applied on an acid equivalent (ae) or active ingredient (ai) basis and included acetyl coA carboxylase (ACCase)-inhibiting herbicides (cyclohexanedione and aryloxyphenoxypropionate chemical classes) cyhalofop-butyl formulated as Clincher® SF (285 gr ai/L EC), diclofop-methyl formulated as Hoelon® 3EC, fenoxaprop-p-ethyl+isoxadifen-ethyl formulated as RiceStar® HT (0.58 lb./gal EC), fenoxaprop-p-ethyl+mefenpyr diethyl formulated as Puma® IEC, metamifop formulated as Metamifop EC, haloxyfop-methyl formulated as Gallant Super®, fluazifop-p-butyl formulated as Fusilade® DX, quizalofop-p-ethyl formulated as Assure® II, profoxydim formulated as Aura® 20EC, clethodim applied as Intensity®, sethoxydim formulated as Poast®, and tralkoxydim formulated as Achieve®.
(§7) Treatment requirements were calculated based upon the rates being tested, the concentration of active ingredient or acid equivalent in the formulation, and a 12 mL application volume at a rate of 187 L/ha.
(§8) For treatments comprised of formulated compounds, measured amounts of compounds were placed individually in 25 mL glass vials and diluted in a volume of 1.25% (v/v) Agri-Dex® crop oil concentrated to obtain 12× stock solutions. […] Application solutions were prepared by adding an appropriate amount of each stock solution (e.g., 1 mL) and diluted to the appropriate final concentrations with the addition of 10 mL of an aqueous mixture of 1.25% (v/v) crop oil concentrate so that the final spray solutions contained 1.25+/−0.05% (v/v) crop oil concentrate.
(§9) All stock solutions and applications solutions were visually inspected for compound compatibility prior to application. Spray solutions were applied to the plant material with an overhead Mandel track sprayer equipped with a 8002E nozzles calibrated to deliver 187 L/ha over an application area of 0.503 m^2 at a spray height of 18 to 20 inches (46 to 50 cm) above average plant canopy height. Control plants were sprayed in the same manner with the solvent blank.
(§10) The treated plants and control plants were placed in a greenhouse as described above and watered by sub-irrigation to prevent wash-off of the test compounds. After approximately 3 weeks, the condition of the test plants as compared with that of the untreated plants was determined visually and scored on a scale of 0 to 100 percent where 0 corresponds to no injury or growth inhibition and 100 corresponds to complete kill. […]

In the next assay the test system is SCPJU. The assay is described as above. The format is in vivo, Schoenoplectus juncoides (Roxb.) Palla.
From the text: as §4, §5, §6, §7, §8, §9, §10

The subject of assay [3] is ECHCO. The description is as above. It is filed as in vivo, Echinochloa colona (L.) Link.
From the text: as §4, §5, §6, §7, §8, §9, §10

For another assay, the system named is KCHSC. In words: Example IV postemergence foliar-applied, greenhouse, cereal crops weeds. It is filed as in vivo, Kochia scoparia (L.) Schrad. As for the experimental part: (§11) Seeds of the desired test plant species were planted in Sun Gro MetroMix® 306 planting mixture, which typically has a pH of 6.0 to 6.8 and an organic matter content of about 30 percent, in plastic pots with a surface area of 103.2 square centimeters (cm^2). […] The plants were grown for 7-36 days in a greenhouse with an approximate 14 hour photoperiod which was maintained at about 18° C. during the day and about 17° C. during the night. Nutrients and water were added on a regular basis and supplemental lighting was provided with overhead metal halide 1000-Watt lamps as necessary. The plants were employed for testing when they reached the second or third true leaf stage.
(§12) Treatments consisted of the benzyl ester of 4-amino-3-chloro-5-fluoro-6-(4-chloro-2-fluoro-3-methoxy-phenyl)pyridine-2-carboxylic acid (Compound A), formulated as an SC, a second cereal herbicide alone and then both in combination.
(§13) Other herbicidal components were applied on an active ingredient basis and included acetyl-CoA carboxylase (ACCase)-inhibiting herbicides clodinafop-propargyl, fenoxaprop-P-ethyl, pinoxaden and tralkoxydim.
(§14) Measured aliquots of benzyl ester of 4-amino-3-chloro-5-fluoro-6-(4-chloro-2-fluoro-3-methoxy-phenyl)pyridine-2-carboxylic acid (Compound A) were placed in 25 milliliter (mL) glass vials and diluted in a volume of 1.25% (v/v) Agri-Dex® crop oil concentrate to obtain stock solutions. Compound requirements are based upon a 12 mL application volume at a rate of 187 liters per hectare (L/ha). […] Formulated compounds were applied to the plant material with an overhead Mandel track sprayer equipped with an 8002E nozzle calibrated to deliver 187 L/ha over an application area of 0.503 square meters (m^2) at a spray height of 18 inches (46 cm) above average plant canopy. Control plants were sprayed in the same manner with the solvent blank.
(§15) The treated plants and control plants were placed in a greenhouse as described above and watered by sub-irrigation to prevent wash-off of the test compounds. After 20-22 days, the condition of the test plants as compared with that of the control plants was determined visually and scored on a scale of 0 to 100 percent where 0 corresponds to no injury and 100 corresponds to complete kill.
as §2
(§16) The following equation was used to calculate the expected activity of mixtures containing two active ingredients, A and B: Expected=A+B−(A×B/100)

The next assay concerns PHAMI. The description is as above. The format is in vivo, Phalaris minor Retz. As for the experimental part:
as §11, §12, §13, §14, §15, §2, §16

The test system of assay [4] is ECHCO. As to the kind of experiment: Example V (second) postemergence foliar-applied ternary mixtures, greenhouse, direct seeded rice weeds. It is filed as in vivo, Echinochloa colona (L.) Link. The settings on record: 115 gai/ha. As to the method: as §1, §2, §3
The next assay deals with ECHCG. The assay is described as above. It is filed as in vivo, Echinochloa crus-galli (L.) Beauv. The settings on record: 280 gai/ha.
From the text: Seeds or nutlets of the desired test plant species were planted in a soil matrix prepared by mixing a sandy loam or loam soil (e.g., 32 percent silt, 23 percent clay, and 45 percent sand, with a pH of about 6.5 and an organic matter content of about 1.9 percent) and calcareous grit in an 80 to 20 ratio. The soil matrix was contained in plastic pots with a volume of 1 quart and a surface area of 83.6 square centimeters (cm^2). When required to ensure good germination and healthy plants, a fungicide treatment and/or other chemical or physical treatment was applied. The plants were grown for 8-22 days in a greenhouse with an approximate 14 hr. photoperiod which was maintained at about 29° C. during the day and 26° C. during the night. Nutrients (Peters Excel® 15-5-15 5-Ca 2-Mg and iron chelate) were applied in the irrigation solution as needed and water was added on a regular basis. Supplemental lighting was provided with overhead metal halide 1000-Watt lamps as necessary. The plants were employed for testing when they reached the first through fourth true leaf stage.
Treatments consisted of the benzyl ester of 4-amino-3-chloro-5-fluoro-6-(4-chloro-2-fluoro-3-methoxy-phenyl)pyridine-2-carboxylic acid (Compound A), formulated as an SC (suspension concentrate), an ACCase inhibitor, and a third herbicidal component, each applied alone and in ternary combination. Forms of compound A were applied on an acid equivalent basis.
The ACCase inhibitor component was applied on an active ingredient basis and included cyhalofop-R-butyl formulated as Clincher® SF, fenoxaprop-p-ethyl formulated as RiceStar® HT, and profoxydim formulated as Aura® 20EC. Other herbicidal components were applied on an active ingredient or acid equivalent basis depending on the compound and included penoxsulam formulated as Grasp® SC, bentazon sodium formulated as Basagran®, triclopyr […] (TEA) salt formulated as Grandstand® R, bispyribac sodium formulated as Regiment® 80WP, imazamox ammonium formulated as Beyond®, benzobicyclon, quinclorac formulated as Facet® 75DF, glyphosate dimethylammonium (DMA) salt formulated as Durango® DMA, glufosinate ammonium formulated as Ignite® 280, fentrazamide formulated as an emulsifiable concentrate (EC), propyrisulfuron formulated as Zeta One®, and indanofan (technical grade material).
as §7
For treatments comprised of formulated compounds, measured amounts of compounds were placed individually in 25 mL glass vials and diluted in a volume of 1.25% (v/v) Agri-Dex® crop oil concentrate to obtain 12× stock solutions. […] Application solutions were prepared by adding an appropriate amount of each stock solution (e.g., 1 mL) and diluted to the appropriate final concentrations with the addition of 9 mL of an aqueous mixture of 1.25% (v/v) crop oil concentrate so that the final spray solutions contained 1.25% (v/v) crop oil concentrate.
As required, additional water and/or 97:3 v/v acetone/DMSO was added to individual application solutions so that the final acetone and DMSO concentrations of the application solutions being compared were 8.1% and 0.25%, respectively.
All stock solutions and applications solutions were visually inspected for compound compatibility prior to application. Spray solutions were applied to the plant material with an overhead Mandel track sprayer equipped with a 8002E nozzles calibrated to deliver 187 L/ha over an application area of 0.503 m^2 at a spray height of 18 inches (46 cm) above average plant canopy height. Control plants were sprayed in the same manner with the solvent blank.
The treated plants and control plants were placed in a greenhouse as described above and watered by sub-irrigation to prevent wash-off of the test compounds. […]

SMILES strings stand for the structures.

4 molecules from US9232796B2, “Herbicidal compositions comprising 4-amino-3-chloro-5-fluoro-6-(4-chloro-2-fluoro-3-methoxyphenyl) pyridine-2-carboxylic acid or a derivative thereof and acetyl-CoA carboxylase (ACCase) inhibitors” (DOW AGROSCIENCES LLC, priority 2012, dated 2016) can be followed below.

Consider `COCc1cnc(C2=NC(C)(C(C)C)C(=O)N2)c(C(=O)O)c1` (stereo not drawn) [Imazamox ammonium], for which the “Visual Weed Control (%) - 21 DAA IPOHE Obs” value in the assay on IPOHE [1] is reported as 65%. In addition, in the assay on CYPES (12 gae/ha), the “Visual Weed Control (%) - 21 DAA CYPES Obs” value stood at 60%.

In the case of `CCc1cc(C)cc(CC)c1-c1c(OC(=O)C(C)(C)C)n2n(c1=O)CCOCC2` [Pinoxaden, 8-(2,6-diethyl-4-methylphenyl)-1,2,4,5-tetrahydro-7-oxo-7H-pyrazolo[1,2-d][1,4,5]oxadiazepin-9-yl 2,2-dimethylpropanoate], the figures for the “Visual Weed Control (%) - 21 DAA IPOHE Obs” value in the assay on IPOHE [2] (15 gai/ha), in the assay on IPOHE [2] (30 gai/ha) and with IPOHE [2] (60 gai/ha) were 10%, 10% and 0%, respectively. Besides, the “Visual Weed Control (%) - 21 DAA SCPJU Obs” value with SCPJU (15 gai/ha), in the assay with SCPJU (30 gai/ha) and in the assay with SCPJU (60 gai/ha) was 0% throughout. Besides, the “Visual Weed Control (%) - 21 DAA ECHCO Obs” value in the assay on ECHCO [3] (15 gai/ha) is 15%; in the assay with ECHCO [3] (30 gai/ha) it was 85%; in the assay on ECHCO [3] (60 gai/ha) it was 95%. For the same molecule, the “Visual Weed Control (%) - 21 DAA KCHSC Obs” value is 0% in the assay with KCHSC (Pinoxaden 15 gai/ha) and 15% with KCHSC (Pinoxaden 30 gai/ha). Moreover, the “Visual Weed Control (%) - 21 DAA PHAMI Obs” value with PHAMI (Pinoxaden 15 gai/ha) is recorded as 78%; with PHAMI (Pinoxaden 30 gai/ha) it was 94%.

`CP(=O)(O)CCC(N)C(=O)O` (stereo not drawn) [Glufosinate ammonium]: the “Visual Weed Control (%) - 21 DAA ECHCO Obs” value in the assay on ECHCO [4] came to 0%.

Consider `O=C(O)c1c(Cl)ccc2cc(Cl)cnc12` [Quinclorac], for which, in the assay on ECHCG, the “Visual Weed Control (%) - 21 DAA ECHCG Obs” value was determined as 10%. In the assay with CYPES (280 gai/ha), the “Visual Weed Control (%) - 21 DAA CYPES Obs” value is on record as 0%.
